Here are results for five compounds from paper PMC12876990, “Targeting secreted PLA2 interactions with EGFR and vimentin to arrest prostate tumour growth” (Cell Death & Disease, 2025).

In data set [1] the target is T1, hGIIA/vimentin interaction (Homo sapiens, UniProt P08670).
T1 construct: Purified vimentin fragments (full length or coil 2) were seeded to a 96-well microplate at 15 μg/mL; hGIIA purified in house from conditioned medium of CHO cell line 2B1
The data set is described as follows: Enzyme immunoassay of hGIIA binding to vimentin coil 2. Conditions: 0.1-100 µM. The method, then:
Prior to assay, hGIIA antibody 4A1 was conjugated to alkaline phosphatase (4A1-AP), produced using the lightning-link conjugation kit (ab102850, Abcam) as per the manufacturer’s instructions.
Purified vimentin fragments (full length or coil 2) were seeded to a 96-well microplate at 15 μg/mL with a 100 μL/well volume. After an overnight incubation at 4 °C, the plate was emptied. Each well was then blocked overnight at 4 °C with 200 μL of 1% BSA in PBS. The plate was emptied and washed with PBST (PBS + 0.05% Tween20). hGIIA solution of 100 ng/mL in PBS with 0.1% BSA was prepared with and without inhibitors c2, Withaferin A and LY311727 in DMSO with concentrations 0.1-100 µM. hGIIA working solution with 0.4% DMSO served as a positive control and PBS with 0.1% BSA served as a negative control. A 100 μL volume of each prepared hGIIA-inhibitor mixture was added to wells in triplicate and incubated at 37 °C for two hours. The plate was washed twice with PBST, then incubated with the 4A1-AP conjugate at 1 μg/mL 0.1% BSA in PBS and incubated for one hour at 37 °C. Plates were then emptied and washed three times with PBST, followed by washing twice with carbonate buffer (8 mM Na2CO3, 36 mM NaHCO3, 2 mM MgCl2, pH 9.8), before incubation with AP substrate p-nitro-phenyl phosphate (PNPP) powder at 1 mg/mL concentration in carbonate buffer. The plate was incubated at 37 °C for 60 mins then absorbance was read at 405 nm by a Spectramax M2 plate reader. All washes were a 200 µL/well volume.

Data set [2] deals with fibroblast-like synoviocytes derived from patients with rheumatoid arthritis. Conditions: cited from earlier work.
In the next data set the test system is hGIIA. The following applies: cited from earlier work.
The test system of data set [3] is LNCaP-luc xenograft tumours. The data set is described as follows: Androgen-sensitive xenograft model. It is filed as in vivo, BALB/c nu/nu mice. The following applies: cF 2 mg/kg po daily. The procedure: BALB/c nu/nu mice (which express murine hGIIA) (n = 13 per group) were injected subcutaneously with 1 × 10^6 luciferase-tagged LNCaP cells (LNCaP-luc) in RPMI 5% FBS/Matrigel (1:1). Subcutaneous tumours (> 65.5 mm^3), in mice randomised to […], were treated by gavage with either vehicle (saline, 1% dimethylformamide (DMF), po, daily) cF (2 mg/kg po, daily) or c2 (0.1 mg/kg, thrice weekly). Mouse weight and tumour diameter, ((d1) and at 90 degrees to d1 (d2) measured with calipers) were recorded twice weekly. Diameter measurements were used to calculate tumour volume; Vol. = π/6 (d1.d2)^3/2, with treatments blinded to experimentalists. Animals were treated for 8-10 weeks unless culled due to tumour volume reaching 15 x 15 mm (1768 mm^3). End of study plasma PSA levels were measured by ELISA. Bioluminescence images were obtained weekly using the IVIS® Lumina (Perkin-Elmer). D-Luciferin, Firefly, potassium salt (150 mg/kg), (Gold Biotechnology Inc.) substrate was administered intraperitoneally prior to imaging. Images were acquired after 10 min with an image time of 60 s, medium binning, F/Stop=1. Images were quantified using the Living Image software (Perkin-Elmer).
(§1) Tumours were fixed with 10% neutral buffered formalin and stored in 70% ethanol, then paraffin-embedded and cut into 5 µm consecutive sections. Samples were deparaffinised with xylene and […] with ethanol using standard protocols, with antigens retrieved by incubating samples in citrate buffer (pH 6) at 95 °C for 20 min. Samples were then incubated with 3% H2O2 in methanol for 30 min to remove endogenous peroxidases, then blocked with 10% goat serum in PBS for 30 min. Samples were then incubated overnight at 4 °C with a range of antibodies: Ki67 (Abcam, ab15580, 1:100), vimentin (1:333), CD31 (Abcam, ab28364, 1:50) and hGIIA (1:100) (Cayman Chemical, Ann Arbour, MI). TUNEL assay (Abcam) was also used to identify apoptosis. Samples were then washed, stained with Rabbit IHC secondary antibody (1:100) (Dako, Glostrup, Denmark) and counterstained with Gill's haematoxylin (1:5) (Dako). Samples were imaged using an M8 digital microscope (PreciPoint GmbH, Freising, Germany) and DAB staining was scored in a blind manner using ImageJ as described previously.

Data set [4] relates to LNCaP-luc xenograft tumours in castrated mice. Put plainly: Castrate-resistant model of PCa. Type of data set: in vivo, BALB/c nu/nu mice. Conditions: cF 2 mg/kg po daily; p = 0.0419. The text has this: Mice (BALB/c nu/nu) carrying LNCaP-luc xenograft tumours ( > 65.5 mm^3) were surgically castrated 2.0 - 6.6 weeks post-tumour establishment. Treatment was commenced five weeks post-castration and the study terminated 10 weeks post-treatment commencement.

Data set [5] in a line: Pharmacokinetics of tritiated cF and c2 in BALB/c mice. It is filed as in vivo. The method, then:
All animal studies were performed according to the guidelines for the ethical use of animals published by the National Health and Medical Research Council of Australia. Mouse pharmacokinetic studies were conducted with approval from the Garvan Institute Animal Ethics Committee (approval #02/21). cF and c2 were radioactively labelled with tritium by catalytic saturation of peptide analogues containing dehydroleucine (Sibtech Inc.), yielding high specific activity (50–60 Ci/mmol) peptides. Their identity was confirmed by three separate analytical methods prior to delivery. Mice (BALB/c, n = 4 per timepoint) were administered a single dose of peptide by the routes and times indicated. Animals were then exsanguinated by cardiac puncture under halothane anaesthesia followed by cervical dislocation. Tissues and plasma were stored at −80 °C prior to analysis. For plasma, a known volume of plasma was added to liquid scintillant (Ultima Gold, Perkin Elmer). For tissues, a known amount of tissue (50–100 mg) was incubated in NaOH (1 mL, 1 M) overnight at room temperature. The solutions were then bleached with disodium EDTA (100 µl, 0.1%) and hydrogen peroxide (300 µl, 30%) and incubated at 50 °C for one hour. The peptide content of plasma and tissues was determined by liquid scintillation counting. The stability of the peptides following administration to animals was evaluated by thin-layer chromatography of tissue-extracted peptide relative to peptide prior to injection (Fig. S2c).

The subject of data set [6] is PC-3M-luc xenograft tumours. The data set is described as follows: Androgen-receptor independent xenograft model. It is filed as in vivo, BALB/c nu/nu mice. The method, then:
Mice (BALB/c nu/nu) carrying luciferase-tagged PC-3M cells (PC-3M-luc) were each injected sc with 1 × 10^6 cells suspended in RPMI culture medium. […] Tumour volume and animal weights were measured twice weekly.
as §1

Data set [7] in a line: Toxicity and serum enzyme levels in PCa xenograft model mice. Type of data set: in vivo. The procedure:
Fig. 1 Derived from the structure of hGIIA, cF and c2 are orally absorbed, cell permeable and non-toxic. a Structure of hGIIA showing disulphide bonds (yellow) and the location of the peptide sequence ^70FLSYK^74 (cyan), which was cyclised to produce pentapeptide cF, then modified to produce c2. b Plasma concentrations of tritiated cF (red) and c2 (blue) following subcutaneous (sc) administration (circles) or oral (po) administration (squares) at 5 mg/kg to BALB/c mice (mean ± SE, n = 4 per time point). Tissue concentrations of c cF and d c2 following sc administration determined in the liver (blue) and kidney (brown) (mean ± SE). Dashed lines indicate estimated background levels of tritium in tissues due to tissue blood content (10% of peak plasma concentration). e–i Following po administration of c2 at 100 mg/kg to male rats (n = 5 per group), levels of c2 were measured in e plasma, f kidney, g faeces, h urine and i liver at timepoints indicated via LCMS/MS (mean ± SE). j Serum enzyme levels of markers of kidney function (creatinine), liver damage (AST and ALT) and heart damage (CK) in PCa xenograft model mice in response to treatment with vehicle (po, 3 x weekly for 6.1 ± 1.6 weeks), cF (10 mg/kg, po, 3 x weekly for 5.4 ± 0.9 weeks) or c2 (10 mg/kg, po, 3 x weekly for 4.8 ± 0.8 weeks) (n = 4, mean ± SE). Data were obtained by the South Eastern Area Laboratory Services Pathology Laboratory at Prince of Wales Hospital, Randwick, Australia. k PCa cell lines LNCaP, PC-3, and DU145 cells incubated with 100 µM c2 (green) for 24 hours with DAPI (blue), scale bar 10 µm (representative cells of n = 3 biological replicates, 5 cells per replicate).
A key failing of previous enzymatic inhibitors of hGIIA was toxicity, resulting in increased incidence of myocardial infarction in a phase III clinical trial. Thus, the toxicity profile of novel hGIIA inhibitors is critically important in evaluating new inhibitors. […] Extensive histopathology was performed on all animals in the control and high dose groups sacrificed on day 29, with no difference observed between the treated groups and the vehicle control group by any measure. […] In light of the toxicity associated with the myocardial infarction study, data from this c2 toxicity study relevant to heart toxicity are shown in Table 1. Heart wet weight was not affected by either low or high dose relative to vehicle, indicating the compound has no significant pro-hypertrophy effect at these doses. The lack of effect of c2 on gross necropsy or histopathology scores also supports the preclinical safety of the compound in the heart. Importantly, c2 has no effect on serum potassium levels or the Na/K ratio, since hypokalemia (low potassium) is highly arrythmogenic. […] It is of interest also that serum alanine transaminase is unaffected by c2 at the doses tested, since this marker was raised three-fold over the normal range in 6.3-fold more patients on varespladib than placebo in the VISTA acute coronary syndrome trial of this sPLA2 inhibitor [13].

The subject of a further data set is castrate-resistant PCa. On the set-up: method as in PMID 15470213. Conditions: cited from earlier work.
The conditions of data set [8]: cited from earlier work.

Peptide text beside a SMILES is read from it.

T1 sequence (P08670 269-407 limits assumed): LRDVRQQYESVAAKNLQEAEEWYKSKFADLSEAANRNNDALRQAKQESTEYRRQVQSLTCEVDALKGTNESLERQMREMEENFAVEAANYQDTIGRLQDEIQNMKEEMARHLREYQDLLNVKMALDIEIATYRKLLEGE

Regarding `CCc1c(CC(N)=O)c2cc(OCCCP(=O)(O)O)ccc2n1Cc1ccccc1` [LY311727], in data set [1], the “inhibition of the hGIIA/vimentin interaction” value is reported as “did not inhibit”.

Take `CC(C)C[C@@H]1NC(=O)[C@H](Cc2ccccc2)NC(=O)[C@H](CCCNC(=N)N)NC(=O)[C@H](Cc2ccc(O)cc2)NC(=O)[C@H](CO)NC1=O` [cF, cyclo-(Phe-Leu Ser-Tyr-Arg)] (cyclo(FLSYR)): the “synthesis of exogenous hGIIA-mediated prostaglandin (PG)” value in data set [2] was “suppress”. The “potency in the inhibition of hGIIA catalytic activity, less than other hGIIA inhibitors” value in the data set on hGIIA is ~ 1000 fold. The tumour volume result in data set [3] (ten weeks, p = 0.0229) is on record as “significant suppression”. The PSA levels result in data set [3] (p = 0.0158) is given as “significantly reduced”. In addition, in [3] (p = 0.0235), the tumour weight entry is listed as “significant suppression”. The luciferase signal result in data set [3] (p = 0.0284) was “reduced”. For the same compound, in data set [4], the “relative tumour volume from time 0 at 10 weeks” value is recorded as “significantly reduced”. The “liver and kidney concentrations relative to c2” value in data set [5] (5 mg/kg) is on record as ~ 10 fold. For the same compound, the “plasma concentration relative to c2” value in [5] (5 mg/kg, sc or po) is recorded as ~ 10 fold. Also, in data set [5] (sc and po administration), the “oral bioavailability (in words)” value is “orally bioavailable”. The “oral bioavailability relative to sc delivery (AUC analysis)” value in data set [5] (tritiated peptide 5 mg/kg, po vs sc, at 16 hours) is on record as around 20%. In data set [6] (cF), the “increase of TUNEL signal” value is listed as “not seen” and the “proliferative marker Ki67 relative to control” value is “significant increase”. For the same compound, the “growth of tumours relative to vehicle controls” value in [6] (cF 5 mg/kg daily po, p < 0.05) is “significantly slowed the growth of tumours”. In addition, the “animals surviving until study termination at 6 months” value in data set [6] (cF daily) amounted to 13%. For the same compound, in [7] (10 mg/kg po thrice weekly), the “serum creatinine, aspartate aminotransferase, alanine aminotransferase, creatine kinase levels” value is “no significant changes”. Besides, the damage to organs result in [7] (10 mg/kg thrice weekly for 10 weeks) was “no observable damage to organs”. Moreover, in data set [7] (max dosages of 10 mg/kg thrice weekly for 10 weeks), the gross toxicity entry is “No gross toxicity”.

Regarding `CC(=O)O[C@@]12CO[C@@H]1C[C@H](O)[C@@]1(C)C(=O)[C@H](O)C3=C(C)[C@@H](OC(=O)[C@H](O)[C@@H](NC(=O)OC(C)(C)C)c4ccccc4)C[C@@](O)([C@@H](OC(=O)c4ccccc4)[C@H]21)C3(C)C` [docetaxel], the tumour response in the data set on castrate-resistant PCa is 12%.

For the compound `CCc1c(C(=O)C(N)=O)c2c(OCC(=O)O)cccc2n1Cc1ccccc1` [varespladib], the “patients with ALT raised three-fold over the normal range, varespladib vs placebo” value in [8] is reported as 6.3 fold.

As to `CC1=C(CO)C(=O)O[C@@H]([C@@H](C)[C@H]2CC[C@H]3[C@@H]4C[C@H]5O[C@]56[C@@H](O)C=CC(=O)[C@]6(C)[C@H]4CC[C@]23C)C1` [withaferin A], in data set [1], the “inhibition of the hGIIA/vimentin interaction” value is “did not inhibit”.
